# Marks after values point to notes of the source that are not given here.
# How the values were obtained:
# [1] = system: DSS acute enteritis model; test: DSS acute enteritis model (Example 6): intestinal length and histopathological evaluation; assay type: in vivo, BALB/c mice; settings: DSS mice; polyphosphate 5 μg/head or TAC 60 μg/head oral daily day 0-7; day 8
# Procedure: (§1) Dextran sodium sulfate (DSS) (MP-BioMedicals; 160110) was dissolved in distilled water to prepare 2% DSS solution. Chemical-induced enteritis was triggered in BALB/c mice (Charles River, Japan) by administering the solution as drinking water ad libitum for 5 days, and acute enteritis was developed while distilled water was supplied as drinking water ad libitum from day 6 to day 8 (necropsy day). Each polyphosphate (PPA-Na, PPA-Ca, PPA-Zn, or PPA-Mg; 5 μg/head each) or tacrolimus (TAC; 60 μg/head; Sigma CORPORATION, PHR1809) was orally administered daily from day 0 to day 7, and on day 8, the mice were subjected to various tests.
# (§2) Mice were euthanized by cervical dislocation under isoflurane anesthesia, and the entire length of the colon was excised after opening the abdomen with scissors. The length of the excised colon was measured on a scale (FIG. 5).
# (§3) Each colon tissue was Swiss rolled (Moolenbeek C, Lab Anim. 1981) and fixed in 10% formalin according to the procedure instructed by Moolenbeek C et al. The tissue was paraffin-embedded, thinly sliced to 4 μm, and stained with hematoxylin & eosin as a prepared specimen. The tissue was pathologically evaluated by inflammatory tissue scoring (Berg DJ, J Clin Invest, 1996) as described by Berg et al. The improvement rate (%) was calculated according to the following formula (Table 4).
# [2] = system: inflammatory cytokines (TNFα, IL1β, IL6, IFNγ); test: DSS acute enteritis model (Example 6): RT-PCR of inflammatory cytokines in intestinal mucosa; assay type: in vivo, BALB/c mice; settings: polyphosphate 5 μg/head or TAC 60 μg/head oral daily day 0-7, day 8
# Procedure: as §1
# (§4) The colon was cut and open in half using scissors, and the intestinal mucosa was detached with a slide glass. Intestinal mucosal tissue was soaked in 0.5 ml TRIzol (ThermoFisher Scientific K.K.), frozen in liquid nitrogen, and stored at −80° C. After thawing each stored sample at room temperature, RNA was recovered according to the procedure instructed by ThermoFisher Scientific K.K. The recovered total RNA was purified using an RNeasy Mini kit (Qiagen) and reverse-transcribed using a High-Capacity cDNA Reverse Transcription Kit (ThermoFisher Scientific K.K.). A PCR reaction was performed, using the recovered cDNA as a template, with EagleTaq Universal Master Mix with ROX (Roche). The primers (TaqMan Gene Expression Assays; ThermoFisher Scientific K.K.) used in the reaction are as follows. IL1β: Mm01336189, TNFα: Mm00443258, IL6: Mn00446190, IFNγ: Mm99999071. Changes in each gene expression level were standardized based on the expression level of Eukaryotic 18S rRNA Endogenous Control (ThermoFisher Scientific K.K.). Spectrum data was acquired using the Applied Biosystems 7300 Real Time PCR system.
# [3] = system: DSS acute enteritis model; test: DSS acute enteritis model (Example 9, dose examination): intestinal length and histopathological evaluation; assay type: in vivo, BALB/c mice; settings: DSS mice; 20 μg/head oral daily day 5-11; day 12
# Procedure: as §2, §3
# (§5) Dextran sodium sulfate (DSS) (MP-BioMedicals; 160110) was dissolved in distilled water to prepare 2% DSS solution. Chemical-induced enteritis was triggered in BALB/c mice (Charles River, Japan) by administering the solution as drinking water ad libitum for 5 days, and acute enteritis was developed while distilled water was supplied as drinking water ad libitum from day 5 to day 12 (necropsy day). Zinc polyphosphate PPA-Zn (1, 5, 20, or 50 μg/head each) or tacrolimus (20 μg/head) was orally administered daily from day 5 to day 11, and on day 12, the mice were subjected to various tests (FIG. 8).
# The intestinal length after zinc polyphosphate treatment was measured according to Example 6, and the improvement rate was calculated (FIG. 8).
# Each tissue was pathologically evaluated by inflammatory tissue scoring according to Example 6, and the improvement rate was calculated (Table 6).
# [4] = system: inflammatory cytokines (IL1β, TNFα, IL6, IFNγ, IL17A); test: DSS acute enteritis model (Example 9, dose examination): RT-PCR of cytokine mRNA; assay type: in vivo, BALB/c mice; settings: 20 μg/head oral daily day 5-11, day 12
# Procedure: as §4, §5
# (§6) The mRNA expression levels of various cytokines (IL1β, TNFα, IL6, IFNγ, and IL17A) were analyzed according to Example 6, and the improvement rate was calculated (Table 6). The primers (TaqMan Gene Expression Assays; ThermoFisher Scientific K.K.) used in the reaction are as follows. IL1β: Mm01336189, TNFα: Mm00443258, IL6: Mn00446190, IFNγ: Mm99999071, IL17A: Mm00439618.
# [5] = system: DSS acute enteritis model; test: DSS acute enteritis model (Example 10, after long-term storage): intestinal length and histopathological evaluation; assay type: in vivo; settings: DSS mice, day 12; PPA-Zn initial (not stored) or TAC
# Procedure: as §2, §3
# (§7) Zinc polyphosphate Test 15-2 was stored under a condition at 60° C. and 75% RH for 8 weeks according to Example 2. The zinc polyphosphate Test 15-2 after storage was used to evaluate efficacy in the DSS acute enteritis model, measure the intestinal length, perform RT-PCR, and evaluate the histopathological severity according to Example 6 (Table 7, FIG. 9).
# (§8) DDS acute enteritis model mice were generated according to Example 6 and subjected to various tests on day 12 (FIG. 9).
# The intestinal length after zinc polyphosphate treatment was measured according to Example 6, and the improvement rate was calculated (FIG. 9).
# Each tissue was pathologically evaluated by inflammatory tissue scoring according to Example 6, and the improvement rate was calculated (Table 7).
# [6] = system: inflammatory cytokines (IL1β, TNFα, IL6, IFNγ, IL17A); test: DSS acute enteritis model (Example 10, after long-term storage): RT-PCR of cytokine mRNA; assay type: in vivo, mice; settings: day 12, PPA-Zn initial (not stored) or TAC
# Procedure: as §4, §7, §8
# as §6, with “7).” for “6).”
# [7] = relative value when control is set to 1
structure (smiles),measurement,setting,value
"C=CC[C@@H]1/C=C(\C)C[C@H](C)C[C@H](OC)[C@H]2O[C@@](O)(C(=O)C(=O)N3CCCC[C@H]3C(=O)O[C@H](/C(C)=C/[C@@H]3CC[C@@H](O)[C@H](OC)C3)[C@H](C)[C@@H](O)CC1=O)[C@H](C)C[C@@H]2OC [TAC, tacrolimus]",Improvement rate Histological severity,[1],40% *
same,Improvement rate Intestinal length,[1],43% *
same,Macro findings Intestinal length,[1],109.8 ± 6.5 mm
same,Micro findings Histological severity,[1],1.8 ± 0.4
same,Improvement rate IFNγ,[2]; DSS mice,98%
same,Improvement rate IL1β,[2]; DSS mice,88% *
same,Improvement rate IL6,[2]; DSS mice,94%
same,Improvement rate TNFα,[2]; DSS mice,85% *
same,Changes in inflammatory cytokines IFNγ,[2]; [7],2 ± 0.9
same,Changes in inflammatory cytokines IL1β,[2]; [7],6.7 ± 6.3
same,Changes in inflammatory cytokines IL6,[2]; [7],5.1 ± 2.3
same,Changes in inflammatory cytokines TNFα,[2]; [7],2.2 ± 0.5
same,Improvement rate Histological severity,[3],27%
same,Improvement rate Intestinal length,[3],9%
same,Macro findings Intestinal length,[3],99.4 ± 12.6 mm
same,Micro findings Histological sovority,[3],2.4 ± 1.3
same,Improvement rate IFNγ,[4]; DSS mice,63%
same,Improvement rate IL1β,[4]; DSS mice,31%
same,Improvement rate IL6,[4]; DSS mice,73%
same,Improvement rate IL17A,[4]; DSS mice,66%
same,Improvement rate TNFα,[4]; DSS mice,39%
same,Changes in inflammatory cytokines IFNγ,[4]; [7],1.5 ± 0.8
same,Changes in inflammatory cytokines IL1β,[4]; [7],85.9 ± 117.1
same,Changes in inflammatory cytokines IL6,[4]; [7],27.2 ± 52.4
same,Changes in inflammatory cytokines IL17A,[4]; [7],53.9 ± 77
same,Changes in inflammatory cytokines TNFα,[4]; [7],5.4 ± 4.5
same,Improvement rate Histological severity,[5],42%
same,Improvement rate Intestinal length,[5],12%
same,Macro findings Intestinal length,[5],89 ± 4.5 mm
same,Micro findings Histological severity,[5],2.3 ± 0.5
same,Improvement rate IFNγ,[6]; DSS mice,79%
same,Improvement rate IL1β,[6]; DSS mice,44%
same,Improvement rate IL6,[6]; DSS mice,76%
same,Improvement rate IL17A,[6]; DSS mice,80%
same,Improvement rate TNFα,[6]; DSS mice,50%
same,Changes in inflammatory cytokines IFNγ,[6]; [7],12.1 ± 27.7
same,Changes in inflammatory cytokines IL1β,[6]; [7],201.1 ± 211.7
same,Changes in inflammatory cytokines IL6,[6]; [7],49.5 ± 55.5
same,Changes in inflammatory cytokines IL17A,[6]; [7],192.9 ± 321.9
same,Changes in inflammatory cytokines TNFα,[6]; [7],8.2 ± 5
